Results on five molecules are retold here after patent publication US20030130343A1, “Fat accumulation-modulating compounds” (AdipoGenix, Inc., priority 2001, published 2003).

SMILES strings stand for the structures.

Data set [1] concerns primary human subcutaneous preadipocytes. The data set is described as follows: High throughput screening of compound efficacy: fluorescent fatty acid (FA*) accumulation in differentiating human preadipocytes. Conditions: for Relative Efficacy: inhibitors of fatty acid accumulation into differentiating adipocytes at a concentration of 100 nM. Also on record: key to Relative Efficacy: “+++” designates a greater in vitro efficacy than “++”; “++”, which in turn is greater than “+”; “+”. Type of data set: cell-based. The method, then: Protocol for High Throughput Screening of Compound Efficacy on Human Preadipocytes Up to five cell strains of banked primary human subcutaneous preadipocytes were used for high throughput screening. […] Cells were split up to four times to produce enough cells for screening. […] On day zero, cells were incubated with growth medium to induce differentiation of preadipocytes into adipocytes (characterized by cell rounding, formation of triglyceride droplets, etc.). Growth medium was changed every three days. On day six, cells were incubated in triplicate with test compounds at various concentrations. […] Cell plates were prewashed with FAB+, and then FA* was added. Cells were incubated with FA* for four hours, and then postwashed with FAB+ to remove unincorporated FA*. Cellular fluorescence of triglyceride droplets that have incorporated FA* was measured on a microplate reader. Efficacy of compounds on inhibiting FA* accumulation was determined by the following calculation: […]

In data set [2] the test system is mice. The settings on record: single injections; cited from earlier work.
Data set [3] deals with primary human subcutaneous preadipocytes. The settings on record: at 10 μM; Alamar Blue. The protocol: Subsequent determination of compound toxicity was measured by incubating cells with Alamar Blue (an indicator of cellular viability, purchased from BioSource International Inc., Camarillo, Calif., USA) for three to four hours before measuring fluorescence of the reduced compound. Toxicity of compounds was determined by the following calculation:
% Toxicity=100−(sample fluorescence/negative control fluorescence*100)

On to `O=C(Nc1ccncc1)c1cc([N+](=O)[O-])ccc1Cl` [AGX-0104], for which the “Relative Efficacy” value in data set [1] is “+++”.

Regarding `O=C(Nc1cccnc1)c1cc([N+](=O)[O-])ccc1Cl` [AGX-0105], the “Relative Efficacy” value in data set [1] is “+++”.

For the molecule `Cc1cc(NC(=O)c2cc([N+](=O)[O-])ccc2Cl)no1` [AGX-0114], the “Relative Efficacy” value in data set [1] is “++”.

Turning to `C=C1C(=O)OC(CCCCCCCC)C1C(=O)O` (stereo not drawn) [C75], the “ate less than untreated littermates consumed” value in data set [2] is reported as 90%. Regarding `N#CC(C#N)=NNc1ccc(OC(F)(F)F)cc1` [FCCP, carbonyl cyanide p-(trifluoromethoxy)-phenylhydrazone], the Emax at 10 µM in data set [1] (Homo sapiens, at 10 μM, read-out: % Efficacy (inhibiting FA* accumulation)) was 100%. Besides, the “% Toxicity” value in data set [3] stood at 100%.
